In ChEMBL document CHEMBL4665541, “Search for new therapeutic options for the uncommon pathogen Mycobacterium chimaera: an open drug discovery approach” (Lancet Microbe, 2021):

Test system: Mycobacterium intracellulare subsp. chimaera
Experiment: (§1) Inhibition of mycobacterial growth using the resazurin microtitre cell viability assay (REMA), compounds at final concentration of 20 µM (2% v/v DMSO). Hits were classed as compounds that inhibited bacterial growth by 70% or more compared to drug-free controls.
Format: functional, organism-based
Set-up: conc 20 uM
Conditions: NCTC13781

Substance | Survival
MMV688990 | 102%
MMV688991 | 90.1%
MMV688994 | 80%
MMV689000 | 101%
MMV689028 | 127%
MMV689029 | 93.5%
MMV689060 | 109%
MMV689061 | 127%
MMV689243 | 110%
MMV689244 | 107%
MMV689255 | 109%
MMV689437 | 106%
MMV689480 | 95.5%
MMV689709 | 91.7%
MMV689758 | 1.81%
MMV690027 | 104%
MMV690028 | 92.3%
MMV690102 | 111%
MMV690103 | 110%
MMV1019989 | 107%
MMV1028806 | 100%
MMV1029203 | 125%
MMV1030799 | 99.7%
MMV1037162 | 107%
MMV1088520 | 98.2%
MMV1110498 | 102%
MMV1198433 | 112%
MMV1236379 | 98.4%

Test system: Mycobacterium tuberculosis
Experiment: as §1
Format: functional, organism-based
Set-up: conc 20 uM
Conditions: H37Rv

Substance | Survival
MMV688990 | 98.5%
MMV688991 | 82.1%
MMV688994 | 13.7%
MMV689000 | 89.8%
MMV689028 | 121%
MMV689029 | 86.9%
MMV689060 | 104%
MMV689061 | 122%
MMV689243 | 82.6%
MMV689244 | 90.1%
MMV689255 | 89.2%
MMV689437 | 104%
MMV689480 | 98.5%
MMV689709 | 97.3%
MMV689758 | 5.64%
MMV690027 | 101%
MMV690028 | 95.8%
MMV690102 | 106%
MMV690103 | 105%
MMV1019989 | 105%
MMV1028806 | 26.7%
MMV1029203 | 128%
MMV1030799 | 18.8%
MMV1037162 | 107%
MMV1088520 | 102%
MMV1110498 | 97.9%
MMV1198433 | 105%
MMV1236379 | 96%

Test system: Mycobacteroides abscessus
Experiment: as §1
Format: functional, organism-based
Set-up: conc 20 uM
Conditions: ATCC19977

Substance | Survival
MMV688990 | 103%
MMV688991 | 98.3%
MMV688994 | 101%
MMV689000 | 115%
MMV689028 | 121%
MMV689029 | 119%
MMV689060 | 119%
MMV689061 | 118%
MMV689243 | 113%
MMV689244 | 115%
MMV689255 | 124%
MMV689437 | 99%
MMV689480 | 112%
MMV689709 | 114%
MMV689758 | 19.8%
MMV690027 | 111%
MMV690028 | 120%
MMV690102 | 113%
MMV690103 | 117%
MMV1019989 | 99%
MMV1028806 | 116%
MMV1029203 | 116%
MMV1030799 | 121%
MMV1037162 | 97.5%
MMV1088520 | 110%
MMV1110498 | 111%
MMV1198433 | 98.6%
MMV1236379 | 110%
